Where two headings read alike, the source gives them in different places.
Target: T1, VLA-4 (Homo sapiens, UniProt P05556+P13612)
T1 construct: host or cells: Jurkat clone E6-1
Assay: Adhesion of Jurkat cells to immobilized VCAM-1 (domains 1-3)
Format: cell-based
Parameters: scale not given here
Settings: adhesion of CFSE-labeled Jurkat cells to recombinant human VCAM-1 (domains 1-3) coated plates, compounds as yielded by solid phase synthesis, purity about 40-90%
Method: In Vitro Assay: Adhesion of Jurkat Cells to Immobilized VCAM-1 (Domains 1-3).
Preparation of Fluorescence Labeled Jurkat Cells:
Jurkat cells (American Type Culture Collection, Clone E6-1, ATCC TIB-152) were cultured in RPMI 1640 medium (Nikken Bio Medical Laboratory, CM1101) supplemented with 10% fetal bovine serum (Hyclone, A-1119-L), 100 U/ml penicilin (Gibco BRL, 15140-122) and 100 μg/ml streptomycin (Gibco BRL, 15140-122) in a humidified incubator at 37° C. with 5% CO2.
Jurkat cells were incubated with phosphate balanced solution (PBS, Nissui, 05913) containing 25 μM of 5(-and-6)-carboxyfluorescein diacetate, succinimidyle ester (CFSE, Dojindo Laboratories, 345-06441) for 20 min at room temperature while gently swirling every 5 min. After centrifugation at 1000 rpm for 5 min, the cell pellet was resuspended with adhesion assay buffer at a cell density of 2×10^6 cells/ml. The adhesion assay buffer was composed of 24 mM Tris-HCl (pH 7.4), 137 mM NaCl, 27 mM KCl, 4 mM glucose, 0.1% bovine serum albumin (BSA, Sigma, A9647) and 2 mM MnCl2.
Preparation of VCAM-1 (Extracellular Domains 1-3):
Complementary DNA (cDNA) encoding 7-domain form of VCAM-1 (GenBank accession #M60335) was obtained using Rapid-Screen™ cDNA library panels (OriGene Technologies, Inc) at Takara Gene Analysis Center (Shiga, Japan). The primers used were 5′-CCAAGGCAGAGTACGCAAAC-3′ (sence) and 5′-TGGCAGGTATTATTAAGGAG-3′ (antisense). PCR amplification of the 3-domain VCAM-1 cDNA was perform using Pfu DNA polymerase (Stratagene) with the following sets of primers: (U-VCAMd1-3) 5′-CCATATGGTACCTGATCAATTTAAAATCGAGACCACCCCAGAA-3′; (L-VCAMd1-3) 5′-CCATATAGCAATCCTAGGTCCAGGGGAGATCTCAACAGTAAA-3′. PCR cycle was 94° C. for 45 sec, 55° C. for 45 sec, 72° C. for 2 min, repeating 15 cycles. After the purification of the PCR product, the fragment was digested with KpnI-AvrII. The digested fragment was ligated into pBluescript IISK(−) (Strategene), which was linealized by digesting with KpnI-XhoI. The ligation was followed by transformation to a Dam/Dcm methylase-free E. coli strain SCS110 (Strategene) to create the donor plasmid pH7. To direct VCAM-1 molecule into the insect cell secretory pathway, the VCAM-1 coding sequence was fused to signal peptide sequence of honeybee melittin. The resulting melittin-VCAM fusion was placed in correct orientation to the baculoviris polyhedrin promoter. Baculovirus transfer vector containing first 3-domain form VCAM-1 (pH10) was constructed by ligation of 0.9 kb fragment from AvrII/Klenow/BclI digests of pH7 into SalI/Klenow/BamHI digests of pMelBacB (Invitrogen). Recombinant baculovirus was generated by using Bac-N-Blue™ Transfection kit (Invitrogen) according to the manufacture's instruction. The recombinant virus was amplified by infection to High-Five™ insect cells for 5-6 days, and virus titer was determined by plaque assay.
High-Five™ insect cells were pelleted in a 225 ml conical tube by centrifugation at 1000 rpm for 5 min After discarding the supernatant, the pellet was resuspended in 1.5×10^9 pfu (MOI=5) of high-titer virus solution, followed by incubation for 1.5 hours at room temperature. The cells were pelleted again and washed once in fresh Express Five™ serum free medium. The cells were pelleted again and finally, resuspended in 200 ml of fresh Express Five™ medium, transferred to a 1,000 ml shaker flask, and incubated in a shaker at 27° C., 130 rpm, for 48 hours before the culture supernatant was collected. The purification of 3-domain form of VCAM-1 from the culture supernatant was performed by one-step anion exchange chromatography. Protein concentration was determined by using Coomassie protein assay reagent (Pierce) according to the manufacture's instruction.
Preparation of Microtiter Plates:
Recombinant human VCAM-1 (extracellular domains 1-3) was dissolved at 0.5 μg/ml in PBS. […]

T1 sequence (P13612 34-1032): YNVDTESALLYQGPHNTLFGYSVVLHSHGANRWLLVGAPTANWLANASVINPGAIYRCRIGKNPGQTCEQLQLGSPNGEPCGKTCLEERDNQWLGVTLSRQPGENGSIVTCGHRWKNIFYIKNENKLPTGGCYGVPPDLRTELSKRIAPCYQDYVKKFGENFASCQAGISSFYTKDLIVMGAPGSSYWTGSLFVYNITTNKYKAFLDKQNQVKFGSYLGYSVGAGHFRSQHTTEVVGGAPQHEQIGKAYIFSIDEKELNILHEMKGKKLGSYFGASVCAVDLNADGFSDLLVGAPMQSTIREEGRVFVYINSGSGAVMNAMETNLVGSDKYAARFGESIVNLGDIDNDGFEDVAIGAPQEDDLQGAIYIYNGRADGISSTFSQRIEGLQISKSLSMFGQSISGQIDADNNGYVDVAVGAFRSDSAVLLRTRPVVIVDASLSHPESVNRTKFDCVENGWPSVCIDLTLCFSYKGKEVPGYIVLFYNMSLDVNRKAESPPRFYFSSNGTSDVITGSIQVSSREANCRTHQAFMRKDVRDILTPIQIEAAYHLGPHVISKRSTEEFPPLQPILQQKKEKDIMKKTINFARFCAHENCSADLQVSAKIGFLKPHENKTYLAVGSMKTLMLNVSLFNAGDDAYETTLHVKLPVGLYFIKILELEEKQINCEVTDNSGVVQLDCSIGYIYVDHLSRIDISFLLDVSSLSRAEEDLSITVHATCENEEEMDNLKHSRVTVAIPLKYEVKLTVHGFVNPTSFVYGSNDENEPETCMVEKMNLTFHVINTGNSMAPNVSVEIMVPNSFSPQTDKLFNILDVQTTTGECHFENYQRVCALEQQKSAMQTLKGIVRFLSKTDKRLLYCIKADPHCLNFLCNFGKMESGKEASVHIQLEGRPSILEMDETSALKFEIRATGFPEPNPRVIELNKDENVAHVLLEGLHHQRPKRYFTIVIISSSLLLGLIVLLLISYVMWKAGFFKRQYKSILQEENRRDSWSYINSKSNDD
T1 sequence (P05556 21-798): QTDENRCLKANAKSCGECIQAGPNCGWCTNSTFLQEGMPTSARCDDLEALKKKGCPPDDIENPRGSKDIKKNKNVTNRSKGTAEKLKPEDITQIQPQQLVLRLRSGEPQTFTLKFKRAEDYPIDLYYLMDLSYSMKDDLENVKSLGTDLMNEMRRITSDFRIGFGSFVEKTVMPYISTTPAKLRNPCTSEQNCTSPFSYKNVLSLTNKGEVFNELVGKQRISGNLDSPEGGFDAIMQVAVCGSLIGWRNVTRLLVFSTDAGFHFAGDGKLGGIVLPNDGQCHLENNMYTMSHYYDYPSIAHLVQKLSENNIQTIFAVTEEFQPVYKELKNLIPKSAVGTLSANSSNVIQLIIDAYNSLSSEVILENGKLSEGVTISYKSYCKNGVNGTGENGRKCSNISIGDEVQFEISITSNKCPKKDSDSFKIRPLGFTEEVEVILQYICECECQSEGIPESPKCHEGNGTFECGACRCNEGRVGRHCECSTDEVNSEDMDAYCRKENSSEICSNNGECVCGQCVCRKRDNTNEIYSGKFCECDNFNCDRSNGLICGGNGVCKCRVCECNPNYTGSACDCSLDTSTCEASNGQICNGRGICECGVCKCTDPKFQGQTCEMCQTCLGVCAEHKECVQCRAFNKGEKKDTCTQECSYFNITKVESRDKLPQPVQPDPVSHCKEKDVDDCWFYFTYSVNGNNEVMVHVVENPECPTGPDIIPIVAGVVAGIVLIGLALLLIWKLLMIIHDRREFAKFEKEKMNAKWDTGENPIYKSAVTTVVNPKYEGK

| SMILES | IC50 (read-out: IC50) [nM] | IC50 |
| --- | --- | --- |
| O=C(N[C@@H](Cc1ccc(NC(=O)N2CCOCC2)cc1)C(=O)O)C1CCCN(c2ncnc(NCC3CCCCC3)c2F)C1 (stereo partly shown) [Example 5.35] | ≤ 500 | – |
| CN1CCN(C(=O)Nc2ccc(C[C@H](NC(=O)C3CCCN(c4ncnc(NCc5cccnc5)c4F)C3)C(=O)O)cc2)CC1 (stereo partly shown) [Example 5.29] | 2000 to 10000 | – |
| O=C(N[C@@H](Cc1ccc(NC(=O)N2CCc3ccccc3C2)cc1)C(=O)O)C1CCCN(C(=O)C2CCCCC2)C1 (stereo partly shown) [Example 4.53] | 500 to 2000 | – |
| Cc1ccccc1-c1ccc(C[C@H](NC(=O)C2CCCN(c3ncnc(N4CCOCC4)c3F)C2)C(=O)O)cc1 (stereo partly shown) [Example 2.27] | – | C-D |
| O=C(N[C@@H](Cc1ccc(NC(=O)N2CCOCC2)cc1)C(=O)O)C1CCCN(c2ncnc(NCc3cccnc3)c2F)C1 (stereo partly shown) [Example 5.28] | 500 to 2000 | – |
| COc1ccc(S(=O)(=O)N2CCCC(C(=O)N[C@@H](Cc3ccc(NC(=O)N4CCOCC4)cc3)C(=O)O)C2)cc1OC (stereo partly shown) [Example 4.34] | ≤ 500 | – |
| O=C(N[C@@H](Cc1ccc(NC(=O)N2CCOCC2)cc1)C(=O)O)C1CCCN(c2ncnc(N3CCCC3)c2F)C1 (stereo partly shown) [Example 5.9] | 2000 to 10000 | – |
| COc1ccccc1-c1ccc(C[C@H](NC(=O)C2CCCN(c3ncnc(NCCc4c[nH]cn4)c3F)C2)C(=O)O)cc1 (stereo partly shown) [Example 5.3] | 2000 to 10000 | – |
| Cc1ccccc1-c1ccc(C[C@H](NC(=O)C2CCCN(C(=O)c3cccc(Cl)c3)C2)C(=O)O)cc1 (stereo partly shown) [Example 1.31] | 2000 to 10000 | – |
| O=C(N[C@@H](Cc1ccc(-c2ccc(Cl)c(Cl)c2)cc1)C(=O)O)C1CCCN(c2ncnc(NC3Cc4ccccc4C3)c2F)C1 (stereo partly shown) [Example 2.48] | – | C-D |
| Cc1ccc(-c2ccc(C[C@H](NC(=O)C3CCCN(c4ncnc(NC5CCCCC5)c4F)C3)C(=O)O)cc2)cc1 (stereo partly shown) [Example 2.5] | – | C-D |
| O=C(N[C@@H](Cc1ccc(NC(=O)N2CCN(c3ccccc3)CC2)cc1)C(=O)O)C1CCCN(c2ncnc(NCCc3c[nH]cn3)c2F)C1 (stereo partly shown) [Example 5.6] | 2000 to 10000 | – |
| COc1ccc(-c2ccc(C[C@H](NC(=O)C3CCCN(c4ncnc(NC5CCCCC5)c4F)C3)C(=O)O)cc2)cc1 (stereo partly shown) [Example 2.15] | – | C-D |
| O=C(N[C@@H](Cc1ccc(-c2ccc(Cl)cc2Cl)cc1)C(=O)O)C1CCCN(S(=O)(=O)Cc2ccccc2)C1 (stereo partly shown) [Example 1.101] | – | C-D |
| Cc1ccc(-c2ccc(C[C@H](NC(=O)C3CCCN(c4ncnc(N5CCOCC5)c4F)C3)C(=O)O)cc2)cc1 (stereo partly shown) [Example 2.7] | – | C-D |
| Cc1ccc(-c2ccc(C[C@H](NC(=O)C3CCCN(S(=O)(=O)c4c(Cl)cccc4Cl)C3)C(=O)O)cc2)cc1 (stereo partly shown) [Example 1.69] | – | C-D |
| Cc1ccccc1-c1ccc(C[C@H](NC(=O)C2CCCN(C(=O)c3ccc4c(c3)OCO4)C2)C(=O)O)cc1 (stereo partly shown) [Example 1.33] | – | C-D |
| O=C(N[C@@H](Cc1ccc(-c2ccccc2)cc1)C(=O)O)C1CCCN(C(=O)c2cccc(Cl)c2)C1 (stereo partly shown) [Example 1.8] | – | C-D |
| COc1ccc(-c2ccc(C[C@H](NC(=O)C3CCCN(S(=O)(=O)c4ccc(C)cc4)C3)C(=O)O)cc2)cc1 (stereo partly shown) [Example 1.76] | – | C-D |
| CN1CCN(C(=O)Nc2ccc(C[C@H](NC(=O)C3CCCN(S(=O)(=O)c4ccc5ccccc5c4)C3)C(=O)O)cc2)CC1 (stereo partly shown) [Example 4.16] | ≤ 500 | – |
| O=C(N[C@@H](Cc1ccc(-c2ccccc2)cc1)C(=O)O)C1CCCN(C(=O)c2ccccc2Cl)C1 (stereo partly shown) [Example 1.13] | – | C-D |
| O=C(N[C@@H](Cc1ccc(NC(=O)N2CCN(c3ccccc3)CC2)cc1)C(=O)O)C1CCCN(c2ncnc(NCCc3ccccn3)c2F)C1 (stereo partly shown) [Example 5.39] | 500 to 2000 | – |

| SMILES | IC50 (read-out: IC50) [nM] | IC50 |
| --- | --- | --- |
| CC1(C)C2CCC1(CS(=O)(=O)N1CCCC(C(=O)N[C@@H](Cc3ccc(-c4ccccc4)cc3)C(=O)O)C1)C(=O)C2 (stereo partly shown) [Example 1.55] | – | C-D |
| Cc1ccc(-c2ccc(C[C@H](NC(=O)C3CCCN(c4ncnc(N(C)Cc5ccccc5)c4F)C3)C(=O)O)cc2)cc1 (stereo partly shown) [Example 2.8] | – | C-D |
| Cc1ccccc1-c1ccc(C[C@H](NC(=O)C2CCCN(C(=O)OC3CCCC3)C2)C(=O)O)cc1 (stereo partly shown) [Example 1.39] | 500 to 2000 | – |
| Cc1ccccc1-c1ccc(C[C@H](NC(=O)C2CCCN(S(=O)(=O)CC34CCC(CC3=O)C4(C)C)C2)C(=O)O)cc1 (stereo partly shown) [Example 1.84] | – | C-D |
| COc1ccccc1C(=O)N1CCCC(C(=O)N[C@@H](Cc2ccc(NC(=O)N3CCc4ccccc4C3)cc2)C(=O)O)C1 (stereo partly shown) [Example 4.27] | ≤ 500 | – |
| Cc1ccccc1-c1ccc(C[C@H](NC(=O)C2CCCN(C(=O)C3CCCCC3)C2)C(=O)O)cc1 (stereo partly shown) [Example 1.34] | – | C-D |
| COc1ccc(-c2ccc(C[C@H](NC(=O)C3CCCN(S(=O)(=O)Cc4ccccc4)C3)C(=O)O)cc2)cc1 (stereo partly shown) [Example 1.82] | – | C-D |
| CN1CCN(C(=O)Nc2ccc(C[C@H](NC(=O)C3CCCN(C(=O)c4ccccc4F)C3)C(=O)O)cc2)CC1 (stereo partly shown) [Example 4.51] | ≤ 500 | – |
| COc1ccc(-c2ccc(C[C@H](NC(=O)C3CCCN(C(=O)c4ccccc4Cl)C3)C(=O)O)cc2)cc1 (stereo partly shown) [Example 1.26] | 500 to 2000 | – |
| O=C(N[C@@H](Cc1ccc(-c2cc(Cl)ccc2Cl)cc1)C(=O)O)C1CCCN(c2ncnc(NCCN3CCCC3)c2F)C1 (stereo partly shown) [Example 2.39] | 500 to 2000 | – |
| CN1CCN(C(=O)Nc2ccc(C[C@H](NC(=O)C3CCCN(S(=O)(=O)Cc4ccccc4)C3)C(=O)O)cc2)CC1 (stereo partly shown) [Example 4.28] | 500 to 2000 | – |
| COc1ccc(-c2ccc(C[C@H](NC(=O)C3CCCN(c4ncnc(N5CCNCC5)c4F)C3)C(=O)O)cc2)cc1 (stereo partly shown) [Example 2.19] | – | C-D |
| Cc1ccc(-c2ccc(C[C@H](NC(=O)C3CCCN(C(=O)Cc4c(Cl)cc(Cl)cc4Cl)C3)C(=O)O)cc2)cc1 (stereo partly shown) [Example 1.22] | – | C-D |
| COc1ccc(-c2ccc(C[C@H](NC(=O)C3CCCN(S(=O)(=O)c4cc(Cl)cc(Cl)c4)C3)C(=O)O)cc2)cc1 (stereo partly shown) [Example 1.83] | – | C-D |
| CC(C)NC(=O)N1CCCC(C(=O)N[C@@H](Cc2ccc(NC(=O)N3CCOCC3)cc2)C(=O)O)C1 (stereo partly shown) [Example 4.52] | ≤ 500 | – |
| O=C(N[C@@H](Cc1ccc(-c2ccc(Cl)cc2Cl)cc1)C(=O)O)C1CCCN(C(=O)c2ccc3c(c2)OCO3)C1 (stereo partly shown) [Example 1.43] | – | C-D |
| O=C(N[C@@H](Cc1ccc(NC(=O)N2CCN(c3ccccc3)CC2)cc1)C(=O)O)C1CCCN(C(=O)c2ccccc2F)C1 (stereo partly shown) [Example 4.50] | ≤ 500 | – |
| O=C(N[C@@H](Cc1ccc(-c2cc(Cl)ccc2Cl)cc1)C(=O)O)C1CCCN(c2ncnc(N3CCOCC3)c2F)C1 (stereo partly drawn) [Example 2.3, (2S)-3-(2′,5′-dichloro[1,1′-biphenyl]-4-yl)-2-[({1-[5-fluoro-6-(4-morpholinyl)-4-pyrimidinyl]-3-piperidinyl}carbonyl)amino]propanoic acid] | ≤ 500 | – |
| Cc1cc(Cl)c(CC(=O)N2CCCC(C(=O)N[C@@H](Cc3ccc(-c4ccc(Cl)cc4Cl)cc3)C(=O)O)C2)c(Cl)c1 (stereo partly shown) [Example 1.45] | – | C-D |
| Cc1ccc(-c2ccc(C[C@H](NC(=O)C3CCCN(S(=O)(=O)c4cc(Cl)cc(Cl)c4)C3)C(=O)O)cc2)cc1 (stereo partly shown) [Example 1.74] | – | C-D |
| Cc1ccccc1-c1ccc(C[C@H](NC(=O)C2CCCN(c3ncnc(N(C)Cc4ccccc4)c3F)C2)C(=O)O)cc1 (stereo partly shown) [Example 2.28] | – | C-D |
